Measured values: ChEMBL document CHEMBL1128478, “Structure-activity relationships of the potent combined endothelin-A/endothelin-B receptor antagonist Ac-DDip16-Leu-Asp-Ile-Ile-Trp21: development of endothelin-B receptor selective antagonists” (J Med Chem, 1995)
Numbered stars: 1 amine (or outer) side, 2 acyl side, 3 side chain; on linkers, the order of the positions; unused ones are H or OH. Square brackets hold non-standard residues; d marks the D form. Peptide text beside a SMILES is read from it. * marks the point of attachment. dGly(5-dibenzosuberyl) = N[C@@H](C(=O)O)C1c2ccccc2CCc2ccccc21; X3 = O=C([C@@H](N[*:1])C(c1ccccc1)(c1ccccc1)c1ccccc1)[*:2]; Ala(1-Adamantyl) = N[C@@H](CC12CC3CC(CC(C3)C1)C2)C(=O)O; X4 = Cc1c(C)c(C)c(C[C@@H](N[*:1])C(=O)[*:2])c(C)c1C; X2 = Cc1c(C)c(C)c(C[C@H](N[*:1])C(=O)[*:2])c(C)c1C; Diphenylacetyl = O=C(C(c1ccccc1)c1ccccc1)*; dDip = N[C@@H](C(=O)O)C(c1ccccc1)c1ccccc1; Dip = N[C@H](C(=O)O)C(c1ccccc1)c1ccccc1; Cyclohexanecarbonyl = O=C(C1CCCCC1)*; 3Pal = N[C@@H](Cc1cccnc1)C(=O)O; Suc = O=C(CCC(=O)[*:2])[*:1]; Orn = NCCC[C@H](N)C(=O)O; Piv = CC(C)(C)C(=O)*

Columns and labels:
[1] = target: T1, Endothelin receptor type B (Rattus norvegicus, UniProt P21451); assay: Binding affinity against endothelin B receptor rat cerebellar membranes.
T1 sequence (P21451 whole entry): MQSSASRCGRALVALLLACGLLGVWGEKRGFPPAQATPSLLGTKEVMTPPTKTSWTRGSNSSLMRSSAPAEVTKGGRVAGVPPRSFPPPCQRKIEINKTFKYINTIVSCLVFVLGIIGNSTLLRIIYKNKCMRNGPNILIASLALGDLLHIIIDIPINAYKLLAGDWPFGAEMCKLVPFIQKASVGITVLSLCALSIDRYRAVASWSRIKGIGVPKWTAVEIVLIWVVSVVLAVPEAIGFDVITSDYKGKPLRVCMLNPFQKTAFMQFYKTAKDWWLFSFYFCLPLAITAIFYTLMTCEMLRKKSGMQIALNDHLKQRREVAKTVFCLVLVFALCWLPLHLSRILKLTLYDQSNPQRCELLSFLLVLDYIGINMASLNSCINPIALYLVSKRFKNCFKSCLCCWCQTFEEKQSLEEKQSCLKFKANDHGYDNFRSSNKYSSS

[2] = Relative affinities against endothelin A receptor (rabbit) and endothelin B receptor (rat); design: reference not given here
[3] = target: T1, Endothelin receptor type B; assay: Inhibition of SRTX-6c stimulated arachidonic acid release in CHO cells expressing rat ET- B receptors

Molecule | IC50 [1] [nM] | Ratio [2] | IC50 [3] [nM]
CC[C@H](C)[C@@H]1NC(=O)[C@H](CC(=O)O)NC(=O)[C@@H](NC(=O)[C@H](NC(C)=O)C(c2ccccc2)c2ccccc2)CSSC[C@@H](C(=O)N[C@@H](Cc2c[nH]c3ccccc23)C(=O)O)NC1=O | > 1000 |  | 
CC[C@H](C)[C@@H]1NC(=O)[C@H](CC(=O)O)NC(=O)[C@H](CC(C)C)NC(=O)[C@@H](C2c3ccccc3CCc3ccccc32)NC(=O)[C@H](Cc2c[nH]c3ccccc23)NC(=O)[C@H]([C@@H](C)CC)NC1=O | > 10000 |  | 
CC[C@H](C)[C@@H]1NC(=O)[C@H](CC(=O)O)NC(=O)[C@H](CC(C)C)NC(=O)[C@@H](C(c2ccccc2)c2ccccc2)NC(=O)[C@H](Cc2c[nH]c3ccccc23)NC(=O)[C@H]([C@@H](C)CC)NC1=O | 1600 |  | 
CC[C@H](C)[C@H](NC(=O)[C@H](CC(=O)O)NC(=O)[C@H](CC(C)C)NC(=O)[C@H](NC(C)=O)C(c1ccccc1)c1ccccc1)C(=O)N[C@H](C(=O)N[C@@H](Cc1ccccc1)C(=O)O)[C@@H](C)CC | 6800 |  | 
CC[C@H](C)[C@H](NC(=O)[C@H](CC1CCCCC1)NC(=O)[C@H](CC(=O)O)NC(=O)[C@H](CC(C)C)NC(=O)[C@H](NC(C)=O)C(c1ccccc1)c1ccccc1)C(=O)N[C@@H](Cc1c[nH]c2ccccc12)C(=O)O | 210 |  | 
CC[C@H](C)[C@H](NC(=O)[C@H](Cc1ccc(O)cc1)NC(=O)[C@H](CC(C)C)NC(=O)[C@H](NC(C)=O)C(c1ccccc1)c1ccccc1)C(=O)N[C@H](C(=O)N[C@@H](Cc1c[nH]c2ccccc12)C(=O)O)[C@@H](C)CC | 80 |  | 
CC[C@H](C)[C@H](NC(=O)[C@H](CC(=O)O)NC(=O)[C@H](CC(C)C)NC(=O)[C@H](NC(C)=O)C(c1ccccc1)c1ccccc1)C(=O)N[C@@H](Cc1ccccc1)C(=O)N[C@@H](Cc1c[nH]c2ccccc12)C(=O)O | 7500 |  | 
CC[C@H](C)[C@H](NC(=O)[C@H](CC(=O)O)NC(=O)[C@@H](Cc1ccccc1)NC(=O)[C@@H](NC(C)=O)C(c1ccccc1)c1ccccc1)C(=O)N[C@H](C(=O)N[C@@H](Cc1c[nH]c2ccccc12)C(=O)O)[C@@H](C)CC | 740 |  | 
CC[C@H](C)[C@H](NC(=O)[C@H](CCCCN)NC(=O)[C@H](CC(=O)O)NC(=O)[C@H](CC(C)C)NC(=O)[C@H](NC(C)=O)C(c1ccccc1)c1ccccc1)C(=O)N[C@@H](Cc1c[nH]c2ccccc12)C(=O)O | 3700 |  | 
CC[C@H](C)[C@@H]1NC(=O)[C@H](CC(=O)O)NC(=O)[C@H](CC(C)C)NC(=O)[C@@H](Cc2ccccc2)NC(=O)[C@H](Cc2c[nH]c3ccccc23)NC(=O)[C@H]([C@@H](C)CC)NC1=O | > 10000 |  | 
CC[C@H](C)[C@H](NC(=O)[C@H](C)NC(=O)[C@H](CC(=O)O)NC(=O)[C@H](CC(C)C)NC(=O)[C@H](NC(C)=O)C(c1ccccc1)c1ccccc1)C(=O)N[C@@H](Cc1c[nH]c2ccccc12)C(=O)O | 330 |  | 
CC[C@H](C)[C@H](NC(=O)[C@H](CC(=O)O)NC(=O)[C@H](CC(C)C)NC(=O)[C@H](NC(C)=O)C(c1ccccc1)c1ccccc1)C(=O)N[C@@H](CC(C)C)C(=O)N[C@@H](Cc1c[nH]c2ccccc12)C(=O)O | 730 |  | 
CC[C@H](C)[C@H](NC(=O)[C@H](CC(=O)O)NC(=O)[C@H](CC(C)C)NC(=O)[C@H](CC12CC3CC(CC(C3)C1)C2)NC(C)=O)C(=O)N[C@H](C(=O)N[C@@H](Cc1c[nH]c2ccccc12)C(=O)O)[C@@H](C)CC (Ac-[Ala(1-Adamantyl)]LDIIW-OH) | 2000 |  | 
CC[C@H](C)[C@H](NC(=O)[C@H](C)NC(=O)[C@H](CC(C)C)NC(=O)[C@@H](NC(C)=O)C(c1ccccc1)c1ccccc1)C(=O)N[C@H](C(=O)N[C@@H](Cc1c[nH]c2ccccc12)C(=O)O)[C@@H](C)CC (Ac-[Dip]LAIIW-OH) | 16 |  | 
CC[C@H](C)[C@H](NC(=O)[C@H](CC(=O)O)NC(=O)[C@H](CC(C)C)NC(=O)[C@@H](NC(C)=O)C(c1ccccc1)c1ccccc1)C(=O)N[C@@H](CCC(=O)O)C(=O)N[C@@H](Cc1c[nH]c2ccccc12)C(=O)O (Ac-[Dip]LDIEW-OH) | > 10000 |  | 
CC[C@H](C)[C@H](NC(=O)[C@H](CC(=O)O)NC(=O)[C@H](CC(C)C)NC(=O)[C@@H](NC(C)=O)C(c1ccccc1)c1ccccc1)C(=O)N[C@H](C(=O)N[C@@H](Cc1ccc(O)cc1)C(=O)O)[C@@H](C)CC (Ac-[Dip]LDIIY-OH) | 6100 |  | 
CC[C@H](C)[C@H](NC(=O)[C@H](CC(=O)O)NC(=O)[C@H](CC(C)C)NC(=O)[C@@H](NC(C)=O)C(c1ccccc1)c1ccccc1)C(=O)N[C@H](C(=O)N[C@@H](Cc1cccnc1)C(=O)O)[C@@H](C)CC (Ac-[Dip]LDII[3Pal]-OH) | > 10000 |  | 

Molecule | IC50 [1] [nM] | Ratio [2] | IC50 [3] [nM]
CC[C@H](C)[C@H](NC(=O)[C@H](CC(=O)O)NC(=O)[C@H](CC(C)C)NC(=O)[C@@H](NC(C)=O)C(c1ccccc1)c1ccccc1)C(=O)N[C@@H](CCCCN)C(=O)N[C@@H](Cc1c[nH]c2ccccc12)C(=O)O (Ac-[Dip]LDIKW-OH) | 4700 |  | 
CC[C@H](C)[C@H](NC(=O)[C@H](CC(=O)O)NC(=O)[C@H](CC(C)C)NC(=O)[C@@H](NC(C)=O)C(c1ccccc1)c1ccccc1)C(=O)N[C@H](C(=O)N[C@@H](Cc1c[nH]c2ccccc12)C(=O)O)C(C)C (Ac-[Dip]LDIVW-OH) | 1400 |  | 
CC[C@H](C)[C@H](NC(=O)[C@@H](NC(=O)[C@H](CC(=O)O)NC(=O)[C@H](CC(C)C)NC(=O)[C@@H](NC(C)=O)C(c1ccccc1)c1ccccc1)C(C)C)C(=O)N[C@@H](Cc1c[nH]c2ccccc12)C(=O)O (Ac-[Dip]LDVIW-OH) | 51 |  | 
CC[C@H](C)[C@H](NC(=O)[C@H](Cc1ccc(O)cc1)NC(=O)[C@H](CC(=O)O)NC(=O)[C@H](CC(C)C)NC(=O)[C@@H](NC(C)=O)C(c1ccccc1)c1ccccc1)C(=O)N[C@@H](Cc1c[nH]c2ccccc12)C(=O)O (Ac-[Dip]LDYIW-OH) | 12 |  | 
CC[C@H](C)[C@H](NC(=O)[C@H](CC(=O)O)NC(=O)[C@H](CCCN)NC(=O)[C@@H](NC(C)=O)C(c1ccccc1)c1ccccc1)C(=O)N[C@H](C(=O)N[C@@H](Cc1c[nH]c2ccccc12)C(=O)O)[C@@H](C)CC (Ac-[Dip][Orn]DIIW-OH) | 150 |  | 
CC[C@H](C)[C@H](NC(=O)[C@H](CC(=O)O)NC(=O)[C@H](CC(C)C)NC(=O)[C@@H](NC(C)=O)C(c1ccccc1)(c1ccccc1)c1ccccc1)C(=O)N[C@H](C(=O)N[C@@H](Cc1c[nH]c2ccccc12)C(=O)O)[C@@H](C)CC (Ac-[X3]LDIIW-OH) | 5900 |  | 
CC[C@H](C)[C@H](NC(=O)[C@H](CC(=O)O)NC(=O)[C@H](CC(C)C)NC(=O)[C@@H](Cc1c(C)c(C)c(C)c(C)c1C)NC(C)=O)C(=O)N[C@H](C(=O)N[C@@H](Cc1c[nH]c2ccccc12)C(=O)O)[C@@H](C)CC (Ac-[X4]LDIIW-OH) | 2400 |  | 
CC[C@H](C)[C@H](NC(=O)[C@H](CCC(=O)O)NC(=O)[C@H](CC(=O)O)NC(=O)[C@H](CC(C)C)NC(=O)[C@H](NC(C)=O)C(c1ccccc1)c1ccccc1)C(=O)N[C@@H](Cc1c[nH]c2ccccc12)C(=O)O (Ac-[dDip]LDEIW-OH) | 6000 |  | 
CC[C@H](C)[C@H](NC(=O)[C@H](CC(=O)O)NC(=O)[C@H](CC(C)C)NC(=O)[C@H](NC(C)=O)C1c2ccccc2CCc2ccccc21)C(=O)N[C@H](C(=O)N[C@@H](Cc1c[nH]c2ccccc12)C(=O)O)[C@@H](C)CC (Ac-[dGly(5-dibenzosuberyl)]LDIIW-OH) | 15 |  | 
CC[C@H](C)[C@H](NC(=O)[C@H](CC(=O)O)NC(=O)[C@H](CC(C)C)NC(=O)[C@@H](NC(=O)C1CCCCC1)C(c1ccccc1)c1ccccc1)C(=O)N[C@H](C(=O)N[C@@H](Cc1c[nH]c2ccccc12)C(=O)O)[C@@H](C)CC (Cyclohexanecarbonyl-[Dip]LDIIW-OH) | 350 | 17.8 | 560
CC[C@H](C)[C@H](NC(=O)[C@H](CC(=O)O)NC(=O)[C@H](CC(C)C)NC(=O)[C@@H](NC(=O)C(c1ccccc1)c1ccccc1)C(c1ccccc1)c1ccccc1)C(=O)N[C@H](C(=O)N[C@@H](Cc1c[nH]c2ccccc12)C(=O)O)[C@@H](C)CC (Diphenylacetyl-[Dip]LDIIW-OH) | 1300 | 2 | 9300
CC[C@H](C)[C@H](NC(=O)[C@H](CC(=O)O)NC(=O)[C@H](CC(C)C)NC(=O)[C@@H](N)Cc1c(C)c(C)c(C)c(C)c1C)C(=O)N[C@H](C(=O)N[C@@H](Cc1c[nH]c2ccccc12)C(=O)O)[C@@H](C)CC (H-[X2]LDIIW-OH) | > 10000 |  | 
CC[C@H](C)[C@H](NC(=O)[C@H](CC(=O)O)NC(=O)[C@H](CC(C)C)NC(=O)[C@@H](N)C(c1ccccc1)(c1ccccc1)c1ccccc1)C(=O)N[C@H](C(=O)N[C@@H](Cc1c[nH]c2ccccc12)C(=O)O)[C@@H](C)CC (H-[X3]LDIIW-OH) | 10000 |  | 
CC[C@H](C)[C@H](NC(=O)[C@H](CC(=O)O)NC(=O)[C@H](CC(C)C)NC(=O)[C@H](N)C(c1ccccc1)c1ccccc1)C(=O)N[C@H](C(=O)N[C@@H](Cc1c[nH]c2ccccc12)C(=O)O)[C@@H](C)CC (H-[dDip]LDIIW-OH) |  |  | 9200
CC[C@H](C)[C@H](NC(=O)[C@H](CC(=O)O)NC(=O)[C@H](CC(C)C)NC(=O)[C@@H](NC(=O)C(C)(C)C)C(c1ccccc1)c1ccccc1)C(=O)N[C@H](C(=O)N[C@@H](Cc1c[nH]c2ccccc12)C(=O)O)[C@@H](C)CC (Piv-[Dip]LDIIW-OH) | 400 | 25 | 890
CC[C@H](C)[C@H](NC(=O)[C@H](CC(=O)O)NC(=O)[C@H](CC(C)C)NC(=O)[C@@H](NC(=O)CCC(=O)O)C(c1ccccc1)c1ccccc1)C(=O)N[C@H](C(=O)N[C@@H](Cc1c[nH]c2ccccc12)C(=O)O)[C@@H](C)CC (Suc-[Dip]LDIIW-OH) | > 10000 |  | 
Ac-FFDIIW-OH | 20 |  | 
